SMILES strings stand for the structures.

For the assay, the target named is T1, α-synuclein (Homo sapiens, UniProt P37840).
T1 construct: expressed in transfected cells
Nature of the assay: calcein assay of membrane integrity (reversal of α-synuclein-mediated disruption of cell membranes, FLIPR). It is filed as cell-based. Conditions: 0.01 μM test compound; neuronal cells infected with LV-α-synuclein, 24 h treatment in serum free media, calcein retention. On the procedure:
(b) Neuronal Activity/Integrity. Toxic aggregates of α-synuclein disrupt the integrity of cell membranes. The disruptive effect of α-synuclein and the ability of test compounds to reverse the α-synuclein-mediated disruption of cell membranes are measured using calcein. Calcein is a fluorescent marker that is retained in healthy cells but is not retained in cells with diminished cellular integrity. To ascertain the effects on neuronal activity, cells are infected with LV-α-synuclein for 24 h, treated with test compound at a range of concentrations, for example 0.01-10 μM, for 24 h in serum free media, loaded with Fluo-4 or calcein, and analyzed by FLIPR assay to determine Ca^2+ and calcein levels. […] Test compounds are evaluated for the ability to restore concentrations of Ca^2+ to those in cells not infected with LV-α-synuclein. […] Test compounds are evaluated, in a concentration-dependent manner, for their ability to reverse the effect of α-synuclein on levels of calcein.
With `CCCCn1nnc(C(Cc2c[nH]c3ccccc23)NC(=O)c2cnc(N3CCN(C)CC3)s2)n1` (stereo not drawn) [Example 5, N-(1-(2-butyl-2H-tetrazol-5-yl)-2-(1H-indol-3-yl)ethyl)-2-(4-methylpiperazin-1-yl)thiazole-5-carboxamide], the “Percent reversal of α-Syn mediated disruption of cell integrity” value (shortened to “Percent reversal”) is recorded as 110%. To `CCc1csc(C(Cc2c[nH]c3ccccc23)NC(=O)c2cnc(N3CCN(C)CC3)s2)n1` (stereo not drawn) [Example 6, N-(1-(4-ethylthiazol-2-yl)-2-(1H-indol-3-yl)ethyl)-2-(4-methylpiperazin-1-yl)thiazole-5-carboxamide] belongs 137%; to `CCCCNC(=N)C(Cc1c[nH]c2ccccc12)NC(=O)c1cnc(N2CCN(C)CC2)s1` (stereo not drawn) [Example 7, N-(1-(butylamino)-1-imino-3-(1H-indol-3-yl)propan-2-yl)-2-(4-methylpiperazin-1-yl)thiazole-5-carboxamide], 189%.

As for `CCCCNNC(=O)C(Cc1c[nH]c2ccccc12)NC(=O)c1cnc(N2CCN(C)CC2)s1` (stereo not drawn) [Example 8, N-(1-(2-butylhydrazinyl)-3-(1H-indol-3-yl)-1-oxopropan-2-yl)-2-(4-methylpiperazin-1-yl)thiazole-5-carboxamide], the “Percent reversal” value is 135%. For `CCCc1nnc(C(Cc2c[nH]c3ccccc23)NC(=O)c2cnc(N3CCN(C)CC3)s2)s1` (stereo not drawn) [Example 9, N-(2-(1H-indol-3-yl)-1-(5-propyl-1,3,4-thiadiazol-2-yl)ethyl)-2-(4-methylpiperazin-1-yl)thiazole-5-carboxamide], the “Percent reversal” value was 187%. As for `CCCc1nnc(C(Cc2c[nH]c3ccccc23)NC(=O)c2cnc(N3CCN(C)CC3)s2)[nH]1` (stereo not drawn) [Example 10, N-(2-(1H-indol-3-yl)-1-(5-propyl-4H-1,2,4-triazol-3-yl)ethyl)-2-(4-methylpiperazin-1-yl)thiazole-5-carboxamide], the “Percent reversal” value is 115%.
